# Results published in patent US20130202733A1, “ISOMALTULOSE FOR USE IN ENHANCING MENTAL PERFORMANCE” (SUEDZUCKER AKTIENGESELLSCHAFT MANNHEIM/OCHSENFURT, priority 2010, published 2013).
# “Also recorded” adds a separate entry of the source.
# Key:
# [1] = glucose standard = 100; cited from earlier work
# healthy school children [2] = test: Attention test (paradigm of Shakow, signal detection, error rate) after isomaltulose or glucose sweetened meal; assay type: in vivo, human
# Procedure: (§1) Seventy-five healthy school children consumed in crossover design two meals designed to differ in their glycemic load (GL; Amount of carbohydrate×Glycemic Index, GI, of food items; GI of isomaltulose=32, GI of glucose=100) while being similar in macro-nutrient content. The cognitive test block takes 45 minutes and was once assessed in the early postprandial phase and once in the late post-prandial phase (>150 minutes) after meal ingestion. Every child participated in four blocks of testing (FIG. 2). • Early test block after meal A • Late test block after meal A • Early test block after meal B • Late test block after meal B
# (§2) On each cognitive test block parallel versions of the cognitive tests were administered.
# (§3) Both meals offered a similar intake of energy (1385 KJ) and macro-nutrients (84.4% carbohydrates, 10.6% protein and 5.0% fat) while differing in glycemic load (GL; Amount of carbohydrate×Glycemic Index of food items), that is whether glucose was released slowly or i quickly into the blood stream. The meals were composed as followed (% of total energy): • High GL meal: Cornflakes+milk (35.3%), yoghurt+fruit preparation (14.2%), glucose (50.5%). • Low GL meal: Cornflakes+milk (35.3%), yoghurt+fruit preparation (14.2%), isomaltulose (50.5%).
# The paradigm of Shakow was used to assess attention with error rate as outcome (Shakow, Arch general Psychiat, 1962, 6, 1-17). […]
# [3] = after ingestion of 50 g; cited from earlier work
# subjects = settings: at 150 minutes following ingestion; cited from earlier work
# healthy school children [4] = test: Episodic memory test (Recall of Objects, British Ability Scales) after isomaltulose or glucose sweetened meal; assay type: in vivo, human
# Procedure: as §1, §2, §3
# The approach was based on the Recall of Objects test of the British Ability Scales (Elliott, British Ability Scales, 1996, National foundation of Educational Research) and children had to recall up to 60 objects.
# healthy adults = settings: milk-based drink; cited from earlier work
Compound,glycemic index (GI) [1],"attention error rate, isomaltulose meal versus glucose meal (healthy school children [2]; early postprandial phase)","attention performance (error rate), isomaltulose meal versus glucose meal (healthy school children [2]; late postprandial phase, >150 minutes after meal ingestion)",blood glucose or glycemic response curve versus sucrose [3],time after ingestion at which blood glucose approximates the initial levels [3],cognitive performance tests versus sucrose-containing drinks (subjects),"episodic memory, isomaltulose meal versus glucose meal (healthy school children [4]; early postprandial phase (early cognitive test block))","episodic memory, isomaltulose meal versus glucose meal (healthy school children [4]; late postprandial phase, >150 minutes after meal consumption)","episodic memory, late postprandial phase compared to early postprandial phase (healthy school children [4]; within the same meal)",effect on cognitive performance (healthy adults)
OC[C@H]1O[C@H](OC[C@H]2OC(O)(CO)[C@@H](O)[C@@H]2O)[C@H](O)[C@@H](O)[C@@H]1O (some centres unmarked) [isomaltulose],32,nearly the same attention error rate; also recorded: nearly the same error rates,performed better by tendency; also recorded: trend for better attention performance,much lower,about 2.5 hours,performed significantly better,did not differ,significantly better episodic memories,not significantly different,does not affect cognitive performance
"OC[C@H]1O[C@@](CO)(O[C@H]2O[C@H](CO)[C@@H](O)[C@H](O)[C@H]2O)[C@@H](O)[C@@H]1O [sucrose, reference compound]",65,,,,,,,,,
